This note sets out measurements from US10259810B2, “N-sulfonylated pyrazolo[3,4-b]pyridin-6-carboxamides and method of use” (AbbVie S.à.r.l., priority 2015, dated 2019).

The structures appear in SMILES notation. Like-named read-outs stand apart in the source and are kept apart here.

The assay addresses T1, ΔF508-CFTR (Homo sapiens, UniProt P13569, DEL508-508).
T1 construct: host or cells: CFBE41o-, doxycycline-inducible
The experiment in a line: CFTR cell surface levels using HRP-tagged ΔF508-CFTR expressing CFBE cells, in the presence of a co-corrector. The assay is classed as cell-based. The text has this:
Measuring CFTR Cell Surface Levels Using HRP-Tagged ΔF508-CFTR Expressing CFBE Cells
The HRP-tagged ΔF508-CFTR cell assay measures the expression of CFTR-ΔF508 at the plasma membrane. CFTR-ΔF508 has a folding defect leading to absence of protein at the plasma membrane. This assay is used to evaluate the capacity of compounds to increase the expression of CFTR-ΔF508 at the plasma membrane. The CFTR-ΔF508 is tagged with HRP (horse radish peroxidase enzyme) within the ECL4 (Extracellular loop 4) of CFTR (Phuan, P.-W. et al. Synergy-based small-molecule screen using a human lung epithelial cell line yields ΔF508-CFTR correctors that augment VX-809 maximal efficacy. Mol. Pharmacol. 86, 42-51 (2014)). When HRP-tagged ΔF508-CFTR is present at the plasma membrane, the HRP enzyme activity can be measured. The amount of CFTR-ΔF508 that can be rescued to the plasma membrane is correlated with the amount of functional enzyme that can be measured.
There are several ways to measure the capacity of compounds to rescue CFTR-ΔF508 to the plasma membrane; either compounds are evaluated on their own and the impact on plasma membrane levels is measured or compounds are evaluated in combination with a co-corrector, i.e. a compound that rescues CFTR-ΔF508 to the plasma membrane but rescue can be enhanced by addition of compounds due to a complementary mode of action.
Activity of Compounds in Combination with Co-Corrector:
For this purpose doxycycline-inducible ΔF508-CFTR-HRP expressing CFBE4lo− cells (obtained from Gergely Lukacs, McGill University) were maintained in MEM (Minimum Essential Medium, Gibco; 31095) supplemented with 10% fetal bovine serum (Hyclone; SV30160.03) under puromycin (3 μg/mL) and G418 selection (0.2 mg/mL). For compound testing, cells were seeded at 4000 cells/well in white 384-well plates (Greiner; 781080) in 50 μL of medium containing 0.5 μg/mL doxycycline and incubated for 68 hours at 37° C., 5% CO2. On day four, 10 μL of test compounds diluted in PBS (phosphate buffered saline) were added to the plates at a final DMSO concentration of 0.1%. In order to measure compound synergy with a co-corrector, 3 μM co-corrector (3-[(2R,4R)-4-({[1-(2,2-difluoro-1,3-benzodioxol-5-yl)cyclopropyl]carbonyl}amino)-7-methoxy-3,4-dihydro-2H-chromen-2-yl]benzoic acid) was added along with test compounds. All compound plates contained negative controls (DMSO) and positive controls (3 μM co-corrector). Cell plates were incubated at 33° C., 5% CO2 for 20 hours. On day five, the cells were washed five times with phosphate-buffered saline, and HRP activity was assayed by the addition of 50 μL/well of HRP substrate (SuperSignal™ West Pico Chemiluminescent Substrate, Thermo Scientific; 34080). After incubation for 15 minutes in the dark, the chemiluminescence was measured using a plate reader (EnVision®, Perkin Elmer). Raw data were normalized to percentage activity values using the equation: 100×(Sample−Negative control)/(Positive control−Negative Control).

Setting [1] is: HRP-tagged ΔF508-CFTR CFBE cells, in the presence of 3 μM co-corrector.
Where [2] appears, read: HRP-tagged ΔF508-CFTR CFBE cells, in the presence of 3 μM co-corrector, read-out: EC50.

T1 sequence (P13569 with tags, fused parts or gaps DEL508-508): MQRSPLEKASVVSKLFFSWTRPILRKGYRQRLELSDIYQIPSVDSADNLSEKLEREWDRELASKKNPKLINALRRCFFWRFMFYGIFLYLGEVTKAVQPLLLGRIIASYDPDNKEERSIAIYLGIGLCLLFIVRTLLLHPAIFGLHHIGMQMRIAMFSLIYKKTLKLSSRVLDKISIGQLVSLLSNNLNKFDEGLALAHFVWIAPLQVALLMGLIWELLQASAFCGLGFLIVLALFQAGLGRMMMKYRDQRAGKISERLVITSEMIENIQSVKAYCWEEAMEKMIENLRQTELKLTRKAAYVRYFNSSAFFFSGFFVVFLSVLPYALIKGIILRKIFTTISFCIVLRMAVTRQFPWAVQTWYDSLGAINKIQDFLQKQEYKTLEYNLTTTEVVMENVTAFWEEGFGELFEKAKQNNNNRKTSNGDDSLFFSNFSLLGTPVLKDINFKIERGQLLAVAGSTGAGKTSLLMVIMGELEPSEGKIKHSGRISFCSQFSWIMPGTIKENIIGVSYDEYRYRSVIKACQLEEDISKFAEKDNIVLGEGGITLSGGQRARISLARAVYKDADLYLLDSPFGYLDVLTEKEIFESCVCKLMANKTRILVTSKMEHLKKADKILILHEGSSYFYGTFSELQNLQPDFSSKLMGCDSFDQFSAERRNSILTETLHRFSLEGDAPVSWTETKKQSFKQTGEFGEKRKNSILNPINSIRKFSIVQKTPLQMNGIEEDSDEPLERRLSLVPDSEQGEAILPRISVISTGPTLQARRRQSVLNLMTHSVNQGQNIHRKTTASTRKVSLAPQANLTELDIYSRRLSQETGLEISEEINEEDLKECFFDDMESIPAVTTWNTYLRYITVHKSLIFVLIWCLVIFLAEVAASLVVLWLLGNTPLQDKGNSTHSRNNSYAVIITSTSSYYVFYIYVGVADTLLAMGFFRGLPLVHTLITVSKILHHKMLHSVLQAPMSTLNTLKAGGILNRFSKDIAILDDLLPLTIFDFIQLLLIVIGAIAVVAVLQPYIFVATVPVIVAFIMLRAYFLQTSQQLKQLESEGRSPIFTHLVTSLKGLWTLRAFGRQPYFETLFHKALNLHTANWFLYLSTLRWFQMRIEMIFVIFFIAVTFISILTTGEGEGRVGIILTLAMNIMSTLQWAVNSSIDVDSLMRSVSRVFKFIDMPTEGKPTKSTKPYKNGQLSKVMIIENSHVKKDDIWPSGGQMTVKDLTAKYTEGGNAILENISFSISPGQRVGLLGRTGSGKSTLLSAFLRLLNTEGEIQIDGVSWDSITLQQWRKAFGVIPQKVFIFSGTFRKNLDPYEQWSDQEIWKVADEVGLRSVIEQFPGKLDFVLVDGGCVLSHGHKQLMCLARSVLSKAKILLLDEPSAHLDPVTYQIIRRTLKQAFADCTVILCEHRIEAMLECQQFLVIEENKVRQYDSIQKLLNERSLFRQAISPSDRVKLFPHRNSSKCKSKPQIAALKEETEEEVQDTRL

On to `CC(C)c1nn(-c2ccc(F)cc2)c2nc(C(=O)NS(C)(=O)=O)cc(N3CC[C@@H](O)[C@H](F)C3)c12` [Compound 344, 4-[(3R,4R)-3-fluoro-4-hydroxypiperidin-1-yl]-1-(4-fluorophenyl)-N-(methanesulfonyl)-3-(propan-2-yl)-1H-pyrazolo[3,4-b]pyridine-6-carboxamide], for which, under setting [1], the “% Activation” value is reported as 374.5%. The EC50 under setting [2] worked out at 1060 nM.

As to `COCC1(F)CCN(c2cc(C(=O)NS(C)(=O)=O)nc3c2c(C(C)C)nn3-c2ccc(F)cc2)CC1` [Compound 345, 4-[4-fluoro-4-(methoxymethyl)piperidin-1-yl]-1-(4-fluorophenyl)-N-(methanesulfonyl)-3-(propan-2-yl)-1H-pyrazolo[3,4-b]pyridine-6-carboxamide], the “% Activation” value under setting [1] is 301.1%. For the same compound, under setting [2], the EC50 turned out to be 223 nM.

As for `O=C(NS(=O)(=O)N1CCOCC1)c1cc(OCC2CCOCC2)c2c(C3CCC3)nn(-c3ccccc3)c2n1` [Compound 358, 3-cyclobutyl-N-(morpholine-4-sulfonyl)-4-[(oxan-4-yl)methoxy]-1-phenyl-1H-pyrazolo[3,4-b]pyridine-6-carboxamide], the “% Activation” value under setting [1] is on record as 242.33%. Further, the EC50 under setting [2] is 89.9 nM.

Take `O=C(NS(=O)(=O)N1CCC(N2CCOCC2)CC1)c1cc(OCC2CCOCC2)c2c(C3CCC3)nn(-c3ccccc3)c2n1` [Compound 359, 3-cyclobutyl-N-[4-(morpholin-4-yl)piperidine-1-sulfonyl]-4-[(oxan-4-yl)methoxy]-1-phenyl-1H-pyrazolo[3,4-b]pyridine-6-carboxamide]: the “% Activation” value under setting [1] turned out to be 236.25%. For the same compound, the EC50 under setting [2] came out at 299 nM.

On to `CN1CCN(C(=O)C2CCN(S(=O)(=O)NC(=O)c3cc(OCC4CCOCC4)c4c(C5CCC5)nn(-c5ccccc5)c4n3)CC2)CC1` [Compound 360, 3-cyclobutyl-N-[4-(4-methylpiperazine-1-carbonyl)piperidine-1-sulfonyl]-4-[(oxan-4-yl)methoxy]-1-phenyl-1H-pyrazolo[3,4-b]pyridine-6-carboxamide], for which the “% Activation” value under setting [1] was 182.8%. Under setting [2], the EC50 amounted to 101 nM.

`CN1CCN(S(=O)(=O)NC(=O)c2cc(OCC3CCOCC3)c3c(C4CCC4)nn(-c4ccccc4)c3n2)CC1` [Compound 361, 3-cyclobutyl-N-(4-methylpiperazine-1-sulfonyl)-4-[(oxan-4-yl)methoxy]-1-phenyl-1H-pyrazolo[3,4-b]pyridine-6-carboxamide]: the “% Activation” value under setting [1] is 204.1%. Besides, the EC50 under setting [2] was 181 nM.

For `CC(C)(C)S(=O)(=O)NC(=O)c1cc(OCC2CCOCC2)c2c(C3CCC3)nn(-c3ccccc3)c2n1` [Compound 362, 3-cyclobutyl-N-(2-methylpropane-2-sulfonyl)-4-[(oxan-4-yl)methoxy]-1-phenyl-1H-pyrazolo[3,4-b]pyridine-6-carboxamide], under setting [1], the “% Activation” value was 195.75%. In addition, under setting [2], the 50% effective concentration (EC50) was 414 nM.

On to `C#CCCS(=O)(=O)NC(=O)c1cc(-c2ccc(N=[N+]=[N-])cc2)c2c(C(C)C)nn(-c3cccc(N(C)C)c3)c2n1` [Compound 363, 4-(4-azidophenyl)-N-(but-3-yne-1-sulfonyl)-1-[3-(dimethylamino)phenyl]-3-(propan-2-yl)-1H-pyrazolo[3,4-b]pyridine-6-carboxamide], for which the “% Activation” value under setting [1] was found to be 415.8%. Moreover, the EC50 under setting [2] stood at 116 nM.

Regarding `COCC1CCN(c2cc(C(=O)NS(=O)(=O)CC#N)nc3c2c(C2CCC2)nn3-c2ccccc2)CC1` [Compound 364, N-(cyanomethanesulfonyl)-3-cyclobutyl-4-[4-(methoxymethyl)piperidin-1-yl]-1-phenyl-1H-pyrazolo[3,4-b]pyridine-6-carboxamide], under setting [1], the “% Activation” value stood at 575%. Also, under setting [2], the EC50 came to 553 nM.

As for `COCC1CCN(c2cc(C(=O)NS(=O)(=O)CCn3cccn3)nc3c2c(C2CCC2)nn3-c2ccccc2)CC1` [Compound 372, 3-cyclobutyl-4-[4-(methoxymethyl)piperidin-1-yl]-1-phenyl-N-[2-(1H-pyrazol-1-yl)ethanesulfonyl]-1H-pyrazolo[3,4-b]pyridine-6-carboxamide], under setting [1], the “% Activation” value is 615.7%. The EC50 under setting [2] amounted to 2560 nM.

With `CC(C)c1nn(-c2ccc(F)cc2)c2nc(C(=O)NS(C)(=O)=O)cc(N3CCC(N4CCOCC4)CC3)c12` [Compound 411, 1-(4-fluorophenyl)-N-(methanesulfonyl)-4-[4-(morpholin-4-yl)piperidin-1-yl]-3-(propan-2-yl)-1H-pyrazolo[3,4-b]pyridine-6-carboxamide], the EC50 stood at 478 nM. Also, the “% Activation” value under setting [1] amounted to 505%.

`CC(C)c1nn(-c2ccc(F)cc2)c2nc(C(=O)NS(=O)(=O)N(C)C)cc(N3CCC(N4CCOCC4)CC3)c12` [Compound 412, N-(dimethylsulfamoyl)-1-(4-fluorophenyl)-4-[4-(morpholin-4-yl)piperidin-1-yl]-3-(propan-2-yl)-1H-pyrazolo[3,4-b]pyridine-6-carboxamide]: the EC50 amounted to 201 nM. In addition, the “% Activation” value under setting [1] is reported as 436.4%.

As for `CCS(=O)(=O)NC(=O)c1cc(N2CCC(N3CCOCC3)CC2)c2c(C(C)C)nn(-c3ccc(F)cc3)c2n1` [Compound 413, N-(ethanesulfonyl)-1-(4-fluorophenyl)-4-[4-(morpholin-4-yl)piperidin-1-yl]-3-(propan-2-yl)-1H-pyrazolo[3,4-b]pyridine-6-carboxamide], the EC50 is 90.6 nM. The “% Activation” value under setting [1] is 455.9%.

For `CC(C)c1nn(-c2ccc(F)cc2)c2nc(C(=O)NS(=O)(=O)C3CC3)cc(N3CCC(N4CCOCC4)CC3)c12` [Compound 414, N-(cyclopropanesulfonyl)-1-(4-fluorophenyl)-4-[4-(morpholin-4-yl)piperidin-1-yl]-3-(propan-2-yl)-1H-pyrazolo[3,4-b]pyridine-6-carboxamide], the EC50 came out at 159 nM. In addition, under setting [1], the “% Activation” value worked out at 508.3%.

Consider `CCS(=O)(=O)NC(=O)c1cc(N2CCC(N3CCCCC3)CC2)c2c(C3CCC3)nn(-c3ccccc3)c2n1` [Compound 427, 4-([1,4′-bipiperidin]-1′-yl)-3-cyclobutyl-N-(ethanesulfonyl)-1-phenyl-1H-pyrazolo[3,4-b]pyridine-6-carboxamide], for which the EC50 was 162 nM. The “% Activation” value under setting [1] is 419.5%.

For the compound `O=C(NS(=O)(=O)C1CC1)c1cc(N2CCC(N3CCCCC3)CC2)c2c(C3CCC3)nn(-c3ccccc3)c2n1` [Compound 428, 4-([1,4′-bipiperidin]-1′-yl)-3-cyclobutyl-N-(cyclopropanesulfonyl)-1-phenyl-1H-pyrazolo[3,4-b]pyridine-6-carboxamide], the EC50 was determined as 77.3 nM. Moreover, the “% Activation” value under setting [1] turned out to be 434.7%.

Regarding `CC(C)Oc1nn(C2CCCCC2)c2nc(C(=O)NS(=O)(=O)N(C)C)cc(-c3ccc(CN4CCCCC4)cc3)c12` [Compound 443, 1-cyclohexyl-N-(dimethylsulfamoyl)-4-{4-[(piperidin-1-yl)methyl]phenyl}-3-[(propan-2-yl)oxy]-1H-pyrazolo[3,4-b]pyridine-6-carboxamide], the “% Activation” value under setting [1] amounted to 332.5%. The EC50 under setting [2] was found to be 184 nM.

For the compound `CCS(=O)(=O)NC(=O)c1cc(N2CCC(C(C)N3CCOCC3)CC2)c2c(C3CCC3)nn(-c3ccc(F)cc3)c2n1` (centres unmarked) [Compound 446, 3-cyclobutyl-N-(ethanesulfonyl)-1-(4-fluorophenyl)-4-{4-[1-(morpholin-4-yl)ethyl]piperidin-1-yl}-1H-pyrazolo[3,4-b]pyridine-6-carboxamide], the “% Activation” value under setting [1] was 669.9%. In addition, the EC50 under setting [2] worked out at 77.4 nM.

On to `O=C(NS(=O)(=O)C1CCOC1)c1cc(-c2ccc(CN3CCOCC3)cc2)c2c(OC3CCC3)nn(C3CCCCC3)c2n1` (centres unmarked) [Compound 467, 3-(cyclobutyloxy)-1-cyclohexyl-4-{4-[(morpholin-4-yl)methyl]phenyl}-N-(oxolane-3-sulfonyl)-1H-pyrazolo[3,4-b]pyridine-6-carboxamide], for which, under setting [1], the “% Activation” value was 229.15%. Moreover, under setting [2], the EC50 was 270 nM.
